Laboratory results published in ChEMBL document CHEMBL1142794, “New alpha-methylene-gamma-butyrolactones with antimycobacterial properties” (2005).
Converted amounts (≈) assume the structure as drawn.

The molecules below were run on Mycobacterium tuberculosis variant bovis (assay: In vitro minimum inhibitory concentration dissolved in DMSO against Mycobacterium bovis BCG using BACTEC 460 radiometric system).
Assay type: functional

**Q.** Which MIC99 does the source give for `C=C1C(=O)O[C@@H](CCCCCCCC)C1C(=O)O` (stereo not given in full) here?
**A.** > 25 µg/mL

**Q.** How did the MIC99 turn out when `C=CCNC(=O)[C@@H]1C(=C)C(=O)O[C@H]1CCCCCCCCCCCC` was run?
**A.** 6.25 µg/mL (≈ 17.9 µM)

**Q.** With `C=C1C(=O)O[C@@H](CCCCCCCC)[C@@H]1C(=O)NCc1ccccc1` as the molecule, how does the MIC99 read?
**A.** 25 µg/mL (≈ 72.8 µM)

**Q.** How did the MIC99 turn out when `C=C1C(=O)O[C@@H](CCCCCCCC)[C@@H]1C(=O)NC/C=C/CC(=O)OC` was run?
**A.** 25 µg/mL (≈ 68.4 µM)

**Q.** With `C=C1C(=O)O[C@@H](CCCCCCCC)[C@@H]1C(=O)NCC(=O)OC` as the molecule, how does the MIC99 read?
**A.** 25 µg/mL (≈ 76.8 µM)

**Q.** With `C=C1C(=O)O[C@@H](CCCCCCCC)C1C(=O)OC` (stereo not given in full) as the molecule, how does the MIC99 read?
**A.** > 25 µg/mL

**Q.** Which MIC99 does the source give for `C=CCNC(=O)[C@H]1[C@H](CCCCCCCC)OC(=O)[C@@H]1C` here?
**A.** > 25 µg/mL

**Q.** `C=CCNC(=O)[C@H]1[C@H](CCCCCCCC)OC(=O)[C@H]1C` was tested. Which MIC99 did it give?
**A.** > 25 µg/mL

**Q.** For `C=CCNC(=O)OCCNC(=O)[C@@H]1C(=C)C(=O)O[C@H]1CCCCCCCC`, which MIC99 is on record?
**A.** > 25 µg/mL

**Q.** How did the MIC99 turn out when `C=CCNC(=O)[C@@H]1C(=C)C(=O)O[C@H]1CCCC` was run?
**A.** 12.5 µg/mL (≈ 52.7 µM)

**Q.** `CCCCCCCCCC[C@@H]1OC(=O)C(=O)C1C(=O)OC` (stereo not given in full) was tested. Which MIC99 did it give?
**A.** > 25 µg/mL

**Q.** With `NNC(=O)c1ccncc1` [ISONIAZID] as the molecule, how does the MIC99 read?
**A.** 0.1 µg/mL (≈ 0.729 µM)

**Q.** `C=CCNC(=O)[C@@H]1C(=C)C(=O)O[C@H]1CCCCCCCC` was tested. Which MIC99 did it give?
**A.** 12.5 µg/mL (≈ 42.6 µM)

**Q.** Which MIC99 does the source give for `CCCCCCCC[C@@H]1OC(=O)C(=O)C1C(=O)OC` (stereo not given in full) here?
**A.** > 25 µg/mL

**Q.** With `CCCC[C@@H]1OC(=O)C(=O)C1C(=O)OC` (stereo not given in full) as the molecule, how does the MIC99 read?
**A.** > 25 µg/mL

**Q.** How did the MIC99 turn out when `C=C1C(=O)O[C@@H](CCCCCCCC)[C@@H]1C(=O)NNc1cccc(Cl)c1` was run?
**A.** > 25 µg/mL

**Q.** `C=C1C(=O)O[C@@H](CCCCCCCC)[C@@H]1C(=O)NCC(=O)O` was tested. Which MIC99 did it give?
**A.** > 25 µg/mL

**Q.** Which MIC99 does the source give for `C=CCNC(=O)[C@@H]1C(=C)C(=O)O[C@H]1CCCCCC` here?
**A.** 12.5 µg/mL (≈ 47.1 µM)

**Q.** How did the MIC99 turn out when `C=C1C(=O)O[C@@H](CCCCCCCC)[C@@H]1C(=O)NCCO` was run?
**A.** 25 µg/mL (≈ 84.1 µM)

These molecules were tested on Mycobacterium tuberculosis variant bovis (assay: In vitro minimum inhibitory concentration dissolved in DMSO against Mycobacterium bovis BCG using BACTEC 460 radiometric system; Range=0.75-1.5 ug/mL).
Assay type: functional

**Q.** How did the MIC99 turn out when `CCCCCCCCCCS(=O)(=O)NC(C)=O` was run?
**A.** 1.5 µg/mL (≈ 5.69 µM)
